Experimental data reported in ChEMBL document CHEMBL2074443, “Association of tamoxifen biliary excretion rate with prior tamoxifen exposure and increased mdr1b expression” (Biochem Pharmacol, 2000).

Biological target: ATP-dependent translocase ABCB1 (Rattus norvegicus, UniProt P43245)
Assay: TP_TRANSPORTER: RT-PCR in vivo, liver of Lewis rat
Format: functional, organism-based

Chain of ATP-dependent translocase ABCB1 (P43245 whole entry): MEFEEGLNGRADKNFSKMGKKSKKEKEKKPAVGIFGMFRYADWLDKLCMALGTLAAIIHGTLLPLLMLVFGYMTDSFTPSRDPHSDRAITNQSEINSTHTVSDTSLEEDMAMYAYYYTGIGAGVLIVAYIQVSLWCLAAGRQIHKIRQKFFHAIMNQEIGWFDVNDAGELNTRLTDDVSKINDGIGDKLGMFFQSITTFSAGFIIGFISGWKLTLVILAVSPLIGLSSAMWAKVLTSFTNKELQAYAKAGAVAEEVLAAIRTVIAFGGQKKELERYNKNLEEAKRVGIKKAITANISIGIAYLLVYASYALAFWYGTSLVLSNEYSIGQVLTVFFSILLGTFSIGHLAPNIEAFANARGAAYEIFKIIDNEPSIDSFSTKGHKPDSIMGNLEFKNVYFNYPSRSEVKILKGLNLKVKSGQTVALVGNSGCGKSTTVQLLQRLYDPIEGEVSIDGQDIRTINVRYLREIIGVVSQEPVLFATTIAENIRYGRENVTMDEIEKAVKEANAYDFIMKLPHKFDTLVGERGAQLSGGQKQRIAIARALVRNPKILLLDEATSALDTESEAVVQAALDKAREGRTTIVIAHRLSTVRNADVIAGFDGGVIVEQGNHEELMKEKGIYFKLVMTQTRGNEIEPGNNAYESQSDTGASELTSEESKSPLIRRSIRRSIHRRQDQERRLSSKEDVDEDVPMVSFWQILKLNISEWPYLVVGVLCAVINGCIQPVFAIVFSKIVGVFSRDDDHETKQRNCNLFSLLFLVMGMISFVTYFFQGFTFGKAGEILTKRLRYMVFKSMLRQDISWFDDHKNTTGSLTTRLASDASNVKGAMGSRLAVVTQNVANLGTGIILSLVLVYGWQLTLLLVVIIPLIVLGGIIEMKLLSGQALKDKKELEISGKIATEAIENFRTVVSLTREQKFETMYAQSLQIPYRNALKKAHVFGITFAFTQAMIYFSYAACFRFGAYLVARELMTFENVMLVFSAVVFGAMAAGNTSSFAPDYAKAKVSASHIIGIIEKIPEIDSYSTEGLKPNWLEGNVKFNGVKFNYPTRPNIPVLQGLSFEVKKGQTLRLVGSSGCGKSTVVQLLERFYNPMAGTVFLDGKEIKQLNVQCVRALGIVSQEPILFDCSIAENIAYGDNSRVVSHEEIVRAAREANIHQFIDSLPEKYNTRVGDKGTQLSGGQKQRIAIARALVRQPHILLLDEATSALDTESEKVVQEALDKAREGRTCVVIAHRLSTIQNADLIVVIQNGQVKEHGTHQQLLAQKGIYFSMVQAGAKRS

Activity: inducer [+]
Compound: CC/C(=C(\c1ccccc1)c1ccc(OCCN(C)C)cc1)c1ccccc1 [TAMOXIFEN]
